Here are results for five molecules from US9234038B2, “Compositions and method for the diagnosis, prevention and treatment of alzheimer's disease” (Seoul National University Industry Foundation, priority 2007, dated 2016).

Data set [1] deals with BALB/c mice. Put plainly: Memory test (Y-maze, passive avoidance) after i.c.v. Aβ. It is filed as in vivo, mouse. To be noted: i.c.v. injection of Aβ 410 pmole plus peptide, tests after one day. As to the method: Tg2576 mice were not used in this test because it takes a lot of time to breed the animals, and they are expensive. Instead, normal mice were used in this memory test because the same AD symptoms as in Tg2576 mice were observed when Aβ was injected into the brains of normal mice. Normal BALB/c mice were injected intracerebroventricularly (i.c.v.) with Aβ (1.855 μg/5 μl, 410 pmole) alone or in combination with a specific peptide. After one day, a Y-maze test and a passive avoidance test were performed. Memory was assessed as described in Yan et al., Br. J. Pharmacol, 133:89-96, 2001.

The target in the next data set is T1, FcγRIIb-CD40 chimera (UniProt P25942+Q63203).
T1 construct: an extracellular domain of FcγRIIb was genetically fused to CD40, consisting of a transmembrane domain and a cytoplasmic domain; human CD40 transmembrane and cytoplasmic domains (fusion partner); expressed in transfected cells; host or cells: NIH3T3
T1 sequence (Q63203+P25942 with tags, fused parts or gaps): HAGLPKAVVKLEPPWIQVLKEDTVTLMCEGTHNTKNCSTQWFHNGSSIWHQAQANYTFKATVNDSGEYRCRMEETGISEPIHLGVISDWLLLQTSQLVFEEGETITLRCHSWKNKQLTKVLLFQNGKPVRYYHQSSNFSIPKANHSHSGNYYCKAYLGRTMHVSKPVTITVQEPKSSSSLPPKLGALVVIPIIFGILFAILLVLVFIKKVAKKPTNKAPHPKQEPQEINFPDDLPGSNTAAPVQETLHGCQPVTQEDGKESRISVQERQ
Put plainly: FcγRIIb-CD40 chimera NF-κB luciferase assay of Aβ binding. The data set is classed as cell-based, rat. The settings on record: Aβ 5 μM. An excerpt:
In order to investigate whether FcγRIIb binds to Aβ in a specific manner, an extracellular domain of FcγRIIb was genetically fused to CD40, consisting of a transmembrane domain and a cytoplasmic domain. The resulting FcγRIIb-CD40 fusion gene was expressed in NIH3T3 cells to increase NF-κ B activity, a signal transducer of CD40, when the fusion protein binds to Aβ. The chimeric gene was constructed as follows. A rat FcγRIIb extracellular region and human CD40 transmembrane and cytoplasmic domains were amplified by performing PCR with FcγRIIb-ED-5′-NheI primer (5′-[…]-3′: SEQ ID No. 15), FcγRIIb-ED-3′-HindIII primer (5′-[…]3′: SEQ ID No. 16), CD40-TM+cyto-5′ primer (5′-[…]-3′: SEQ ID No. 17), and CD40-TM+cyto-3′ primer (5′-[…]-3′: SEQ ID No. 18). PCR products were inserted into a pEGFP-N1 vector according to the same method as in Example 3. Cells were transfected with the chimeric gene, CD40, TNFRI, pcDNA3 (mock) along with an NF-kB-luciferase gene, and were exposed to 5 μM of Aβ or 20 ng/ml of TNF. NF-κ B activity was assessed, as described in Woo et al., FEBS Lett. 578, 239-244, 2004.
Based on the results of Example 10, a sequence spanning from the first to ninth residues from the N-terminus of Aβ, and a 95 to 101 sequence and a 107 to 114 sequence of mouse FcγRIIb, which are Aβ docking sites, were synthesized. Also, peptides, in which a residue involved in Aβ-cγRIIb binding in the above sequences was replaced with alanine, were synthesized. The peptides (wild type and mutant) have the sequences represented by SEQ ID Nos. 19 to 28 (panel a, FIG. 10). The synthesized peptides were individually allowed to react with a mixture of FcγRIIb-CD40 and Aβ (5 μM) or PBS. Then, luciferase activity was measured.

Another data set has as its system FcγRIIb. Briefly: Western blot of FcγRIIb expression in Aβ-exposed B103 cells treated with FcγRIIb ED. The data set is classed as cell-based, rat. To be noted: 5 μM Aβ 48 hrs; 100 μg FcγRIIb ED. As to the method: (§1) An FcγRIIb extracellular domain (ED) was purified as described in Sondermann et al., EMBO J, 18:1095-1103, 1999. Neuronal B103 cells or primary-cultured neuronal cells were exposed to 5 μM of Aβ for 48 hrs. Then, cells were treated or not treated with 100 μg of the purified FcγRIIb ED, or treated or not treated with 100 μg of bovine serum albumin (BSA). B103 cells were subjected to Western blotting, which was performed with anti-FcγRIIb antibody as described in Example 2-2. The primary neuronal culture was evaluated for cell survival as described in Example 3.

Data set [2] has as its system primary-cultured neuronal cells. Briefly: Cell survival of Aβ-exposed primary neuronal culture treated with FcγRIIb ED. The data set is classed as cell-based, rat. To be noted: 5 μM Aβ 48 hrs, 100 μg FcγRIIb ED, compared to BSA. As to the method: as §1
The target in a further data set is T2, Aβ1-42 (Homo sapiens, UniProt P05067).
T2 construct: subjected to Western blotting to assess the association between FcγRII and Aβ1-42; purchased Sigma
T2 sequence (P05067 672-713): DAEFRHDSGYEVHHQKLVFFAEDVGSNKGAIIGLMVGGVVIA
Put plainly: In vitro binding assay (immunoprecipitation, Western blot). The settings on record: 5 μM Aβ, 20 μg FcγRIIb-ED, 37° C. 3 hrs. How it is done:
5 μM of Aβ was mixed with 20 μg of FcγRIIb-ED or 20 μg of BSA in vitro, and was incubated at 37° C. for 3 hrs. The reaction mixture was incubated with anti-FcγRIIb polyclonal antibody or anti-GST antibody for 2 hrs, and then with Protein G for 3 hrs (binding solution: 50 mM Tris-HCl, pH 7.4, 1 mM DTT, 0.5 mM EDTA, 0.01% Triton X-100, 0.5 mg/ml bovine serum albumin, 10% (v/v) glycerol, protease inhibitors cocktail, several concentrations of NP-40). The beads were washed three times and subjected to Western blotting to assess the association between FcγRII and Aβ1-42. Western blotting was carried out with K9.361 antibody and anti-Aβ antibody (primary antibody: 71-5800 (Zymed, USA); secondary antibody: goat anti-rabbit IgG conjugated to horseradish peroxidase (Santa Cruz Biotechnology, USA).

In data set [3] the test system is BALB/c mice. Put plainly: Immunostaining of intraneuronal Aβ accumulation in mouse brain. It is filed as in vivo. The settings on record: mice treated i.c.v. with Aβ plus peptide. How it is done:
Brain specimens were prepared from the mice of Example 13 according to the same method as in Example 6. Sections were immunostained with primary antibodies, anti-Aβ antibody (Biosource, USA) plus an antibody to a marker of neurons, anti-neuron specific enolase (NSE) antibody (Axxora, Swiss) or anti-neuron specific nuclear protein (NeuN) antibody (Chemicon, USA), and with secondary antibodies, anti-mouse-FITC antibody (goat anti-mouse IgG conjugated to FITC (Santa Cruz Biotechnology, USA), anti-mouse-TRITC antibody (goat anti-mouse IgG conjugated to TRITC (Santa Cruz Biotechnology, USA), and anti-rabbit-goat-anti-mouse IgG conjugated to horseradish peroxidase (Santa Cruz Biotechnology, USA)).

Data set [4] concerns B103 cells. Briefly: Immunostaining of intracellular Aβ accumulation in siRNA-transfected B103 cells. It is filed as cell-based, rat. To be noted: 100 nM Aβ, 12 hrs. As to the method: psiFcγRIIb #1 cells or psiRAGE #1 cells, prepared in Example 4, were exposed to 100 nM of Aβ or PBS for 12 hrs, and immunostained with anti-Aβ antibody (4G8; Signet, USA) according to the same method as in Example 2-3.

In data set [5] the test system is B103 cells. Put plainly: Viability of siRNA-transfected B103 cells exposed to Aβ. The settings on record: 5 μM Aβ, 48 hrs. The data set is classed as cell-based, rat. An excerpt: Small interfering RNAs (siRNAs) inhibiting the expression of FcγIIb and receptors for advanced glycation end-product (RAGE), which is known as a cell surface receptor of Aβ, were constructed, and their effects on cell death were compared to each other. A siRNA duplex was formed by hybridizing sense and antisense complementary RNA oligonucleotides, listed in Table 1, below, and was inserted into pSuper-neo (Oligoengine, USA). The siRNA expression vectors thus constructed were individually transfected into B103 cells using lipofectamine (Invitrogen, USA) according to the manufacturer's protocol. The resulting transfected cells were designated “pSuper-neo”, “psiFcγRIIb#1”, “psiFcγRIIb#2”, “psiRAGE#1”, and “psiRAGE#2”. Then, transfected cells were subjected to Western blot analysis. […] Then, the transformed B103 cells were exposed to 5 μM of Aβ or PBS for 48 hrs, and their viability was evaluated. Cell survival was assessed through trypan blue exclusion, Hoechst staining (Sigma, USA), and Annexin V labeling (Promega, USA). The survival of effector cells and cells introduced with pEGFP (Clontech, USA) was determined by observing the morphology of GFP-positive cells under a fluorescence microscope (Leica DMRBE, Germany). Cells were determined to be dead when the cell morphology changed to a spherical shape and the cell membrane was disrupted or destroyed.

Entries after “also recorded” stand apart in the source; their conditions may differ.

With “9: synthesized peptide among SEQ ID Nos. 19 to 28; corresponds to a binding region in Aβ or FcγRIIb; probably SEQ ID No. 27 (RCHSWRNK; Synthetic peptide #9 for interaction inhibitor) [compound 9]”, in the data set on BALB/c mice [1], the Aβ-induced memory decline entry is on record as “strongly reduce; also recorded: restore”. Further, in the data set with FcγRIIb-CD40 chimera, the “NF-κB activation induced through binding of Aβ to FcγRIIb-CD40 (luciferase activity)” value (“NF-κB activation induced through binding” below) was “strongly inhibited; also recorded: effectively inhibited”.

Regarding “FcγRIIb ED: purified FcγRIIb extracellular domain (SEQ ID No. 33), purified as described in Sondermann et al. 1999”, in the data set with FcγRIIb, the “Aβ-increased expression of FcγRIIb” value was “suppressed”. The “Aβ signaling / relative cell viability” value is “completely inhibit” in data set [2] and “increased to that of cells not exposed to Aβ; also recorded: increase the relative viability of neuronal cells exposed to Aβ to the same level as cells not exposed to Aβ” in data set [2] (listed as FcγRIIb extracellular domain). For the same molecule, the “binding of Aβ to FcγRIIb-ED” value in the data set with Aβ1-42 is reported as “directly bind”.

Consider “peptide #1: synthesized peptide among SEQ ID Nos. 19 to 28; corresponds to a binding region in Aβ or FcγRIIb; probably SEQ ID No. 19 (DAEFRHDSG; Synthetic peptide #1 for interaction inhibitor)”, for which the Aβ-induced memory decline result in the data set on BALB/c mice [1] (listed as #1) is reported as “strongly reduce; also recorded: restore”. In the data set with BALB/c mice [3] (listed as #1), the “intraneuronal Aβ accumulation in brain” value is on record as “disappeared; also recorded: completely inhibited”. Also, the “NF-κB activation induced through binding” value in the data set with FcγRIIb-CD40 chimera (listed as #1) is “strongly inhibited; also recorded: effectively inhibited”.

For the molecule “peptide #7: mutant peptide having an alanine substitution for a residue responsible for Aβ-FcγRIIb binding; among SEQ ID Nos. 19 to 28 (DAEARHASG; Synthetic peptide #7 for interaction inhibitor)”, the Aβ-induced memory decline result in the data set with BALB/c mice [1] was “failed to reverse memory decline”. Besides, the “intraneuronal Aβ accumulation in brain” value in the data set with BALB/c mice [3] was “strong intraneuronal Aβ staining”. In addition, the “NF-κB activation induced through binding” value with FcγRIIb-CD40 chimera was “sharp decrease in inhibitory effects”.

B1: siRNA against RAGE: siRNA against RAGE, oligomers SEQ ID Nos. 13 and 14, inserted into pSuper-neo (nucleic acid)
sense: GATCCCCGCTCCGGATGAAGAATCAGTTCAAGAGACTGATTCTTCATCCGGAGCTTTTTGGAAA
antisense: AGCTTTTCCAAAAAGCTCCGGATGAAGAATCAGTCTCTTGAACTGATTCTTCATCCGGAGCGGAGTCGGG
modifications: expressed or natural sequence; the letters are possibly those of the target site
Turning to B1, in the data set on B103 cells [4], the “intracellular Aβ accumulation” value is recorded as “maintained”. The “Aβ-induced cell death / survival” value in the data set on B103 cells [5] is reported as “low survival”.
